Measurements: US20030228583A1, “Biomarkers of liver response” (priority 2001, published 2003)

How the values were obtained:
Male Sprague-Dawley rats = assay: Phenobarbital rat toxicity study (clinical observations, body weight, clinical laboratory measurements, organ weights, histopathology)
[1] = tested on: Liver Response-Associated Features (LRFs) in liver tissue; assay: Proteome analysis (2D electrophoresis, Reference Protocol) of liver tissue of drug-treated vs control animals: relative abundance of LRFs
Description: Samples from animals treated with various drugs at various timepoints and various dose levels can be collected, prepared, and analysed as described herein. […] Using the following procedure, proteins in liver tissue and serum/plasma from 5 control animals and 5 animals having liver response induced through drug treatment were separated by isoelectric focusing followed by SDS-PAGE and analyzed. Samples were taken and analyzed at three different time points designated “early”, “full manifestation” and “late”. Parts 6.1.1 to 6.1.9 (inclusive) of the procedure set forth below are hereby designated as the “Reference Protocol”.
At the time of necropsy, approximately 2 g section of the liver's median lobe was removed to a conical tube and quick-frozen in liquid nitrogen. The frozen liver section was then pulverized for 1 minute using a freezer mill as follows:
Approximately 10-20 mg pulverized liver was solubilized with 10 ul protease inhibitor and 1.5 ml lysis solution and vortexed well. The sample was allowed to remain at room temperature for 10 minutes, was vortexed again, and then pelleted using an Eppendorf 5417R Centrifuge for 10 minutes at 13000g at 15 EC. The resulting supernatant was frozen at −80° C.
The sample was heated at 95° C. for 5 mins, and then allowed to cool to 20° C. 125 μl of the following buffer was then added to the sample:
This mixture was vortexed, and centrifuged at 13000 rpm for 5 mins at 15° C., and the supernatant was analysed by isoelectric focusing. An assay for protein content was carried out on the final sample (Pierce BCA Cat #23225).
Isoelectric focusing (IEF), was performed using the Immobiline® DryStrip Kit (Pharmacia BioTech), following the procedure described in the manufacturer's instructions, see Instructions for Immobilineg DryStrip Kit, Pharmacia, #18-1038-63, Edition AB (incorporated herein by reference in its entirety). Immobilized pH Gradient (IPG) strips (18 cm, pH 3-10 non-linear strips; Pharmacia Cat. #17-1235-01) were rehydrated overnight at 20° C. in a solution of 8M urea, 2% (w/v) CHAPS, 10 mM DTT, 2% (v/v) Resolytes 3.5-10, as described in the Immobiline DryStrip Users Manual. For IEF, 50 μl of supernatant (prepared as above) was loaded onto a strip, with the cup-loading units being placed at the basic end of the strip. The loaded gels were then covered with mineral oil (Pharmacia 17-3335-01) and a voltage was immediately applied to the strips according to the following profile, using a Pharmacia EPS3500XL power supply (Cat 19-3500-01):
After the final 19 hr step, the strips were immediately removed and immersed for 10 mins at 20° C. in a first solution of the following composition: 6M urea; 2% (w/v) DTT; 2% (w/v) SDS; 30% (v/v) glycerol (Fluka 49767); 0.05M Tris/HCl, pH 6.8 (Sigma Cat T-1503). The strips were removed from the first solution and immersed for 10 mins at 20° C. in a second solution of the following composition: 6M urea; 2% (w/v) iodoacetamide (Sigma 1-6125); 2% (w/v) SDS; 30% (v/v) glycerol; 0.05M Tris/HCl, pH 6.8.
A 9-16% linear polyacrylamide gradient was cast, extending up to a point 2 cm below the level of the notch in the front plate, using the Angelique gradient casting system (Large Scale Biology). Stock solutions were as follows. Acrylamide (40% in water) was from Serva (Cat. #10677). […] The gel buffer was 0.375M Tris/HCl, pH 8.8. The polymerization catalyst was 0.05% (v/v) TEMED (BioRad 161-0801), and the initiator was 0.1% (w/v) APS (BioRad 161-0700). No SDS was included in the gel and no stacking gel was used. The cast gels were allowed to polymerize at 20° C. overnight, and then stored at 4° C. in sealed polyethylene bags with 6 ml of gel buffer, and were used within 4 weeks.
A solution of 0.5% (w/v) agarose (Fluka Cat 05075) was prepared in running buffer (0.025 M Tris, 0.198 M glycine (Fluka 50050), 1% (w/v) SDS, supplemented by a trace of bromophenol blue). The agarose suspension was heated to 70° C. with stirring, until the agarose had dissolved.

[2] = final necropsy (twelve days post dose)

CCC1(c2ccccc2)C(=O)NC(=O)NC1=O [phenobarbital]
Clinical observations (Male Sprague-Dawley rats; 100 mg/kg/day oral gavage, rat): generally well tolerated with no adverse clinical signs observed in any of the control or treated groups other than decreased activity | Survival (Male Sprague-Dawley rats; 100 mg/kg/day oral gavage, rat): survived | Gross pathology observations (Male Sprague-Dawley rats; 100 mg/kg/day oral, rat): no treatment-related gross findings | Creatinine decreased (Male Sprague-Dawley rats; day 2, 100 mg/kg/day oral, rat): 1.7 × | Serum/plasma urea nitrogen decreased (Male Sprague-Dawley rats; day 2, 100 mg/kg/day oral, rat): 1.8 × | Total protein decreased (Male Sprague-Dawley rats; day 2, 100 mg/kg/day oral, rat): 1.1 × | Cholesterol increased (Male Sprague-Dawley rats; day 5, 100 mg/kg/day oral, rat): 1.5 × | Glucose decreased (Male Sprague-Dawley rats; day 5, 100 mg/kg/day oral, rat): 1.6 × | Serum/plasma urea nitrogen increased (Male Sprague-Dawley rats; day 12, 100 mg/kg/day oral, rat): 1.2 × | % reticulocytes (Male Sprague-Dawley rats; days 5 and 12): small but significant decreases | Group mean body weights vs concurrent controls (Male Sprague-Dawley rats; either interim necropsy): No significant treatment-related changes | Mean body weight vs concurrent controls (Male Sprague-Dawley rats; final necropsy): significant decrease | Absolute liver weights (Male Sprague-Dawley rats; [2]): about the same as control | Relative liver weight increased (Male Sprague-Dawley rats; [2]): about 1.06 × control mean | Liver weights increased (Male Sprague-Dawley rats; five days post dose): about 1.5 × control mean | Increased numbers of hepatocytes with apoptotic bodies or mitotic figures, incidence (Male Sprague-Dawley rats; same time point as centrilobular hypertrophy): 3 of 5 | Liver weights increased (Male Sprague-Dawley rats; two days post dose): about 1.1 × control mean | Centrilobular hypertrophy, incidence (Male Sprague-Dawley rats; two days post dose (so in the source)): 5 of 5 | Group means of the various hematology parameters (except % reticulocytes) (Male Sprague-Dawley rats; vs vehicle control animals): not altered | Fold Change LRF-24 ([1]; Early, P 0.0075): 3.34 fold | Fold Change LRF-17 ([1]; Early, P 0.0212): 1.61 fold | Fold Change LRF-26 ([1]; Early, P 0.0216): 1.33 fold | Fold Change LRF-37 ([1]; Early, P 0.0254): 3.98 fold | Fold Change LRF-112 ([1]; Late, P 0.0075): 5.38 fold | Fold Change LRF-115 ([1]; Late, P 0.0075): 3.16 fold | Fold Change LRF-85 ([1]; Middle, P 0.0122): 1.72 fold | Fold Change LRF-60 ([1]; Middle, P 0.0216): 1.67 fold | Fold Change LRF-80 ([1]; Middle, P 0.0216): 1.40 fold | Fold Change LRF-90 ([1]; Middle, P 0.0216): 1.47 fold | Fold Change LRF-66 ([1]; Middle, P 0.0345): 1.93 fold | Fold Change LRF-74 ([1]; Middle, P 0.0361): 1.42 fold | Fold Change LRF-83 ([1]; Middle, P 0.0367): 1.40 fold
